Like-named read-outs stand apart in the source and are kept apart here.
Columns and labels:
[1] = molecular target: recombinant human A2A receptors (Homo sapiens, UniProt P29274); assay: Radioligand competition binding to recombinant human A2A receptors in Sf9 cell membranes; conditions: Ki from competition binding, Sf9 cell membranes
human neutrophils = assay: Human neutrophil oxidative activity, luminol-enhanced chemiluminescence; assay type: cell-based; conditions: for PMN oxid + roli (-log EC50): human neutrophil experiment w/Rolipram; for PMN oxid (-log EC50) / EC50: human neutrophil experiment w/o Rolipram; for EC50: Homo sapiens, Neutrophil, read-out: PMN oxid (-log EC50) (converted)
Experimental: Chemiluminescence Methods: Lumninol enhanced chemiluminescence, a measure of neutrophil oxidative activity, is dependent upon both superoxide production and mobilization of the granule enzyme myeloperoxidase. The light is emitted from unstable high-energy oxygen species such as hypochlorous acid and singlet oxygen generated by activated neutrophils.
The plate was incubated 5 min (37 C) and then fMLP (50 l in HA; final concentration […]) was added to all wells.
Data are presented as peak chemiluminescence as percent of activity in the absence of an adenosine agonist. The EC50 was determined using PRISM software. All compounds were tested with PMNs from three separate donors.
Lummol-enhanced chemiluminescence, a measure of neutrophil oxidative activity, is dependent upon both superoxide production and mobilization of the lysosomal granule enzyme myeloperoxidase. The light is emitted from unstable high-energy oxygen species generated by activated neutrophils. Purified neutrophils (5-10×10^5/ml) were incubated in Hanks balanced salt solution containing 0.1% human serum albumin (1 ml) with the tested A2A agonist with or without rolipram and with or without tumor necrosis factor-alpha (1 U/ml) for 30 minutes at 37° C. in a shaking water bath. […] Chemiluminescence is reported as relative peak light emitted (=height of the curve) compared to samples with tumor necrosis factor-alpha and without agonist or rolipram.

A3 AR = molecular target: T1, A3 AR (Homo sapiens, UniProt P0DMS8); assay: Radioligand competition binding (125I-ABA) to human A3 AR in HEK 293 cell membranes; conditions: for Ki: Ki from competition binding, 125I-ABA, HEK 293 cell membranes; for A3/A2A: selectivity ratio A3 over A2A
T1 sequence (P0DMS8 1-318): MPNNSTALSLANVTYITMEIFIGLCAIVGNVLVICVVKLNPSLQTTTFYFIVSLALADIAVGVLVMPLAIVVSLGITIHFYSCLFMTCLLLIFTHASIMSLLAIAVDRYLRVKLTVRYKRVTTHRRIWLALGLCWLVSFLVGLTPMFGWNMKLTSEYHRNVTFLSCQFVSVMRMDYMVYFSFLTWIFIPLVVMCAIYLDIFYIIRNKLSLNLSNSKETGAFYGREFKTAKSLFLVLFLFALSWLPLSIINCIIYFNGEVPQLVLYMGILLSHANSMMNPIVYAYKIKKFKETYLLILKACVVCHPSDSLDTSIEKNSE

human A1 AR = molecular target: T2, human A1 AR (Homo sapiens, UniProt P30542); assay: Radioligand competition binding (125I-ABA) to human A1 AR in CHO K1 cell membranes; conditions: for Ki: Ki from competition binding, 125I-ABA, CHO K1 cell membranes; for A1/A2A: selectivity ratio A1 over A2A
T2 sequence (P30542 1-326): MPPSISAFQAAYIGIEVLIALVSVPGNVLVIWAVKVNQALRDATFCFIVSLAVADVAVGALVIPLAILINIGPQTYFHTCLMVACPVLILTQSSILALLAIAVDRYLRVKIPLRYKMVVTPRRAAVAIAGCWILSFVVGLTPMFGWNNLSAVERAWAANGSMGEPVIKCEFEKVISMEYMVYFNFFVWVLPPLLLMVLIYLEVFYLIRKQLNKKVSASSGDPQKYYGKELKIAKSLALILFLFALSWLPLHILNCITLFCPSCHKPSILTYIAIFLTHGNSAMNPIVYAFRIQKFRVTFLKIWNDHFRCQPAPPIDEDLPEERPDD

Chain of recombinant human A2A receptors (P29274 whole entry): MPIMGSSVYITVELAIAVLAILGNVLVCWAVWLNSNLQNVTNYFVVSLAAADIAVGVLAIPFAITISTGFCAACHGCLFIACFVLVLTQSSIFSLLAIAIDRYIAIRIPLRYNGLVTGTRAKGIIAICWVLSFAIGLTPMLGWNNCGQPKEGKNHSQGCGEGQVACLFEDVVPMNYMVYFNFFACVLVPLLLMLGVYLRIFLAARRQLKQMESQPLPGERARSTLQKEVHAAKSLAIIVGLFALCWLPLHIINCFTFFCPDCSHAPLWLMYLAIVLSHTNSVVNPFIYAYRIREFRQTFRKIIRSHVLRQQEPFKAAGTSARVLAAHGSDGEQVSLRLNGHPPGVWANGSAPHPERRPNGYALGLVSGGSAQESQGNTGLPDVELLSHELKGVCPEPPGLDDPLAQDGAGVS

Ki ([1]; A2A ± SEM) | PMN oxid + roli (-log EC50) (human neutrophils) | PMN oxid (-log EC50) (human neutrophils) | Ki (A3 AR; A3 ± SEM) | A3/A2A (A3 AR) | Ki (human A1 AR; A1 ± SEM) | A1/A2A (human A1 AR) | EC50 (human neutrophils) | Ki ([1]; read-out: A2A ± SEM) | Ki (A3 AR; read-out: A3 ± SEM) | Ki (human A1 AR; read-out: A1 ± SEM) | Structure (SMILES)
1.2 ± 0.15 nM | 8.77 | 7.73 | 69.7 ± 43 nM | 59.1 | 44.9 ± 17.2 nM | 38.1 |  |  |  |  | CCNC(=O)[C@H]1O[C@@H](n2cnc3c(N)nc(C#CC4(O)CCCCC4C)nc32)C(O)C1O (single isomer, unassigned) [JR-3181A, 5-[6-Amino-2-(1-hydroxy-2-methyl-cyclohexylethynyl)-purin-9-yl]-3,4-dihydroxytetrahydrofuran-2-carboxylic acid ethylamide]
1.26 ± 0.21 nM |  |  | 68.6 nM | 54.4 | 134 nM | 106.0 | 2.24 nM |  |  |  | CCNC(=O)[C@H]1O[C@@H](n2cnc3c(N)nc(C#CCC4CCN(C(=O)OCC)CC4)nc32)C(O)C1O (stereo in doubt) [JR-3269, 4-{3-[6-Amino-9-(5-ethylcarbamoyl-3,4-dihydroxytetrahydrofuran-2-yl)-9H-purin-2-yl]-prop-2-ynyl}-piperidine-1-carboxylic acid ethyl ester]
2.4 ± 0.2 nM | 8.7 |  | 18.6 ± 4.4 nM | 7.7 | 28.7 ± 3.3 nM | 11.9 | 28.8 nM |  |  |  | CCNC(=O)[C@H]1O[C@@H](n2cnc3c(N)nc(C#CCC4CCC(C(C)=O)CC4)nc32)C(O)C1O (stereo in doubt) [JR-3119, 5-{2-[3-(4-Acetyl-cyclohexyl)-prop-1-ynyl]-6-aminopurin-9-yl}-3,4-dihydroxytetrahydrofuran-2-carboxylic acid ethylamide]
5.08 ± 0.81 nM | 8.21 |  | 9 ± 5.5 nM | 1.8 | 19.5 ± 0.12 nM | 3.8 | 50.1 nM |  |  |  | CCNC(=O)[C@H]1O[C@@H](n2cnc3c(N)nc(C#C[C@@]4(O)CCC[C@@H](C)C4)nc32)C(O)C1O (stereo partly drawn) [JR-3221, 5-[6-Amino-2-(1-hydroxy-3-methylcyclobexylethynyl)purin-9-yl]-3,4-dihydroxytetrahydrofuran-2-carboxylic acid ethylamide]
 | 9.9 | 9.14 |  | 6.7 |  | 10.8 |  | 0.7 ± 0.05 nM | 4.4 ± 11 nM | 7.1 ± 1.1 nM | CCNC(=O)C1OC(n2cnc3c(N)nc(C#CC4(O)CCCCC4)nc32)C(O)C1O (stereo not drawn) [JR-3089]
5.7 ± 0.6 nM | 8.31 |  | 71 ± 16 nM | 12.6 | 52.3 ± 7.6 nM | 9.3 | 105 nM |  |  |  | CCNC(=O)[C@H]1O[C@@H](n2cnc3c(N)nc(C#CCC4CCC(C(C)O)CC4)nc32)C(O)C1O (stereo in doubt) [JR-3121, 5-(6-Amino-2-{3-[4-(1-hydroxy-ethyl)-cyclohexyl]-prop-1-ynyl}-purin-9-yl)-3,4-dihydroxytetrahydrofuran-2-carboxylic acid ethylamide]
0.9 ± 0.1 nM | 9.26 |  | 45.6 ± 10 nM | 50.7 | 205 ± 2.6 nM | 227.8 | 3.47 nM |  |  |  | CCNC(=O)[C@H]1O[C@@H](n2cnc3c(N)nc(C#CCC4CCN(C(=O)OC(C)(C)C)CC4)nc32)C(O)C1O (stereo in doubt) [JR-3259, 4-{3-[6-Amino-9-(5-ethylcarbamoyl-3,4-dihydroxytetrahydrofuran-2-yl)-9H-purin-2-yl]-prop-2-ynyl}-piperidine-1-carboxylic acid tert-butyl ester]
1.6 ± 0.02 nM | 8.67 |  | 26 ± 14 nM | 16.7 | 15.1 ± 3.9 nM | 9.7 | 49 nM |  |  |  | CCNC(=O)[C@H]1O[C@@H](n2cnc3c(N)nc(C#CCC4CCC(C(=O)OCCN)CC4)nc32)C(O)C1O (stereo in doubt) [JR-3033, 4-{3-[6-Amino-9-(5-ethylcarbamoyl-3,4-dihydroxy-tetrahydrofuran-2-yl)-9H-purin-2-yl]-prop-2-ynyl}-cyclohexanecarboxylic acid 2-amino-ethyl ester]
1.5 ± 0.22 nM | 9.11 |  | 43.3 ± 18 nM | 28.1 | 14.7 ± 2.2 nM | 9.5 | 14.1 nM |  |  |  | CCNC(=O)[C@H]1O[C@@H](n2cnc3c(N)nc(C#CC4(O)CCC(C(C)(C)C)CC4)nc32)C(O)C1O (stereo in doubt) [JR-3203, 5-[6-Amino-2-(4-tert-butyl-1-hydroxycyclohexylethynyl)purin-9-yl]-3,4-dihydroxytetrahydrofuran-2-carboxylic acid ethylamide]
0.8 nM |  |  | 100 nM | 125 | 100 nM | 125 | 2 nM |  |  |  | CCNC(=O)[C@H]1O[C@@H](n2cnc3c(N)nc(C#CC[C@H]4CC[C@H](COC(=O)OC)CC4)nc32)C(O)C1O (stereo partly drawn) [ATL214, N-Ethyl 2-{3-[trans-4-(methoxycarbonyloxymethyl)-cyclohexyl]-1-propyn-1-yl}adenosine-5′-uronamide]
2 ± 0.25 nM |  |  | 66.2 nM | 19.0 | 15.3 ± 0.4 nM | 4.6 | 5.75 nM |  |  |  | CCNC(=O)[C@H]1O[C@@H](n2cnc3c(N)nc(C#CCN4CCN(c5ncccn5)CC4)nc32)C(O)C1O (stereo in doubt) [JR-3283, 5-{6-Amino-2-[3-(4-pyrimidin-2-yl-piperazin-1-yl)-prop-1-ynyl]-purin-9-yl}-3,4-dihydroxytetrahydrofuran-2-carboxylic acid ethylamide]
11.9 ± 1.3 nM | 7.65 | 6.42 | 31.1 ± 7.2 nM | 2.6 | 29.6 ± 4.8 nM | 2.5 |  |  |  |  | CCNC(=O)[C@H]1O[C@@H](n2cnc3c(N)nc(C#CC4(O)CCCCNC4=O)nc32)C(O)C1O (single isomer, unassigned) [JR-3243A, 5-[6-Amino-2-(3-hydroxy-2-oxo-azepan-3-ylethynyl)purin-9-yl]-3,4-dihydroxytetrahydrofuran-2-carboxylic acid ethylamide]
11.1 ± 2.8 nM | 7.67 |  | 152 ± 62 nM | 13.7 | 784 ± 94 nM | 70.6 | 537 nM |  |  |  | CCNC(=O)[C@H]1O[C@@H](n2cnc3c(N)nc(C#CC4(O)CC(C)(C)CC(C)(C)C4)nc32)C(O)C1O (stereo in doubt) [JR-3163, 5-[6-Amino-2-(1-hydroxy-3,3,5,5-tetramethyl-cyclohexylethynyl)-purin-9-yl]-3,4-dihydroxytetrahydrofuran-2-carboxylic acid ethylamide]
25.1 ± 1.3 nM | 7.14 |  | 50 nM | 2.0 | 536 nM | 21.4 | 7410 nM |  |  |  | CCNC(=O)[C@H]1O[C@@H](n2cnc3c(N)nc(C#CC4(O)CCCCC4C(C)(C)C)nc32)C(O)C1O (stereo in doubt) [JR-3227, 5-[6-Amino-2-(2-tert-butyl-1-hydroxycyclohexylethynyl)purin-9-yl]-3,4-dihydroxytetrahydrofuran-2-carboxylic acid ethylamide]
166 ± 42 nM | 6.75 |  | 83.7 ± 30 nM | 0.5 | 801 ± 99 nM | 4.8 | 4070 nM |  |  |  | CCNC(=O)[C@H]1O[C@@H](n2cnc3c(N)nc(C#CC(O)(C4CCCCC4)C4CCCCC4)nc32)C(O)C1O (stereo in doubt) [JR-3139, 5-[6-Amino-2-(3,3-dicyclohexyl-3-hydroxy-prop-1-ynyl)-purin-9-yl]-3,4-dihydroxytetrahydrofuran-2-carboxylic acid ethylamide]

Reference: US7737127B2, “2-propynyl adenosine analogs having A2A agonist activity and compositions thereof” (University of Virginia Patent Foundation, priority 2001, dated 2010)
